{"source": "paper PMC10979003", "about": "“Development and crystal structures of a potent second-generation dual degrader of BCL-2 and BCL-xL” (Nature Communications, 2024)", "key": {"WT BCL-2": {"target": "T1, WT BCL-2 (Homo sapiens, UniProt P10415)", "T1 construct": "BCL-xL (aa 2-212) and BCL-2 (aa 1-207) transformed cells were grown in LB broth; made in house; host or cells: E. coli BL21 (DE3) codon plus", "T1 sequence (P10415 1-207)": "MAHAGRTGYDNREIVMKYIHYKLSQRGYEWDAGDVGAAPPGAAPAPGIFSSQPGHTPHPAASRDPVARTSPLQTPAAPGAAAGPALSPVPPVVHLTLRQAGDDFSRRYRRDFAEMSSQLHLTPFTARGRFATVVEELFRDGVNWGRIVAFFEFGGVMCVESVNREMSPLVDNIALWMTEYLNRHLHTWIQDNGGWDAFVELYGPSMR", "test": "AlphaScreen displacement binary binding assay, WT BCL-2", "description": "To test the binary/ternary binding affinities of compounds to BCL-2/BCL-xL, AlphaScreen displacement binding assay was performed to test the capabilities of testing compounds to displace a Biotin-tagged Bim (Biotin-[…]) or Bad (Biotin-[…]) from BCL-2 or BCL-xL for BCL-2 and BCL-xL binding affinities, respectively. All reagents were diluted in assay buffer of 25 mM HEPES, pH 7.5, 150 mM NaCl, 0.1% BSA, and 0.005% tween 20 prior incubation. To a 96-well PCR plate (VWR, Cat. No. 82006-636) was added 10 μL Biotin-tagged Bim (15 nM for WT or 50 nM for mutants) or Bad (15 nM for WT or 50 nM for mutants), 10 μL series diluted compounds solution (2 or 3 or 4× dilution), and 10 μL self-made 6×His tagged BCL-2 WT or mutants (25 nM WT or 50 nM mutants) or 10 μL self-made BCL-xL WT and mutants (10 nM WT or 50 nM mutants). After incubating at room temperature for 30 min, 5 µL of 160 μg/mL of anti-6×His acceptor beads (PerkinElmer, Cat. No. AL128M) was added and the mixture was incubated at room temperature for 15 min. 5 µL of 160 μg/mL of streptavidin donor beads (PerkinElmer, 6760002) was then added under subdued light and the mixture was incubated at dark for 30 min before being transferred to two adjacent wells (17 µL each) of 384-well white OptiPlate (PerkinElmer, Cat. No. 6008280). The luminescence signal was detected on a Biotek’s Synergy Neo2 multimode plate reader installed with an AphaScreen filter cube. The Ki values of each compounds were calculated by fitting data into the “Binding-competitive, One site-Fit Ki” function in GraphPad Prism (9.2.0) based on concentrations of Biotin–peptide used and experimentally determined Kd values of each 6×His protein &&&and Biotin–Peptide pair."}, "Jurkat cells": {"test_system": "Jurkat cells", "test": "TMT-based proteomics in Jurkat cells", "type": "cell-based, human", "settings": "100 nM, 8 h", "description": "To further assess the cellular selectivity of 753b and WH244 for BCL-xL/BCL-2 proteins, multiplexed tandem mass tag (TMT) labeling mass spectrometry proteomic experiments were performed to monitor protein levels in an unbiased fashion. Jurkat cells were treated in triplicate with DMSO, 100 nM 753b or 100 nM WH244 for 8 h (Supplementary Fig. 10b). […] To assess BCL-xL and BCL-2 degradation, we utilized western blotting with the same samples, and successfully verified the degradation of both BCL-xL and BCL-2 proteins induced by 753b and WH244, respectively (Supplementary Fig. 10c). We speculate that these apparently contradictory results may be attributable to some of the limitations of TMT technology, where low TMT-labeling efficiency for some proteins and peptides, can lead to inability to detect these proteins by TMT-based proteomics analysis. This limitation has been observed in several other reported PROTAC studies[52],[53]. […]\nProteins were identified and MS3 reporter ions quantified using MaxQuant (version 2.2.0.0; Max Planck Institute) against the Homo sapiens UniprotKB database (March 2023) with a parent ion tolerance of 3 ppm, a fragment ion tolerance of 0.5 Da, and a reporter ion tolerance of 0.003 Da. […] Protein TMT MS3 reporter ion intensity values were assessed for quality using ProteiNorm for a systematic evaluation of normalization methods. […]"}, "[1]": {"settings": "mean ± s.d., n=3, read-out: Ki (nM, n=3), BCL-2 WT"}, "[2]": {"settings": "response letter, Supplementary Fig. 11, read-out: Ki, binary complex with BCL-2"}}, "note": "Read-outs that look alike come from different tables or passages of the source."}
{"smiles": "Cc1ncsc1-c1ccc([C@H](C)NC(=O)[C@@H]2C[C@@H](O)CN2C(=O)[C@@H](NC(=O)CN2CCN(CC(=O)N3CCN(C[C@]4(C)CCC(c5ccc(Cl)cc5)=C(CN5CCN(c6ccc(C(=O)NS(=O)(=O)c7ccc(N[C@H](CCN8C[C@@H]9C[C@H]8CO9)CSc8ccccc8)c(S(=O)(=O)C(F)(F)F)c7)cc6)CC5)C4)CC3)CC2)C(C)(C)C)cc1", "note": "[WH244]", "values": [{"measurement": "Kd", "setting": "WT BCL-2; Supplementary Fig. 11", "result": "~3.1", "unit": "nM"}, {"measurement": "Ki", "setting": "WT BCL-2; [1]", "result": "3.5 ± 0.5", "unit": "nM"}, {"measurement": "Ki", "setting": "WT BCL-2; [2]", "result": 3.1, "unit": "nM"}, {"measurement": "Proteins significantly down-regulated among approximately 6000 identified", "setting": "Jurkat cells", "result": "none of which exhibited significant down-regulation"}]}
{"smiles": "Cc1ncsc1-c1ccc(C(C)NC(=O)C2CC(O)CN2C(=O)C(NC(=O)CCCCCCC(=O)N2CCN(CC3(C)CCC(c4ccc(Cl)cc4)=C(CN4CCN(c5ccc(C(=O)NS(=O)(=O)c6ccc(NC(CCN7CCOCC7)CSc7ccccc7)c(S(=O)(=O)C(F)(F)F)c6)cc5)CC4)C3)CC2)C(C)(C)C)cc1", "note": "(centres unmarked) [753b]", "values": [{"measurement": "Kd", "setting": "WT BCL-2; Supplementary Fig. 11", "result": "~23.4", "unit": "nM"}, {"measurement": "Ki", "setting": "WT BCL-2; [1]", "result": "24.9 ± 5.4", "unit": "nM"}, {"measurement": "Ki", "setting": "WT BCL-2; [2]", "result": 23.4, "unit": "nM"}, {"measurement": "Proteins significantly down-regulated among approximately 6000 identified", "setting": "Jurkat cells", "result": "none of which exhibited significant down-regulation"}]}
